Paper PMC7985170, “Marine Peptide-N6NH2 and Its Derivative-GUON6NH2 Have Potent Antimicrobial Activity Against Intracellular Edwardsiella tarda in vitro and in vivo” (Frontiers in Microbiology, 2021)
≈ marks a conversion by molar mass, not a printed value. Where a SMILES comes first, the peptide text is derived from it. Bridges are numbered along the chain shown (N, C = ends).

Legend:
[1] = tested on: E. coli CVCC1515; assay type: cell-based, Escherichia coli
Method: (§1) The antimicrobial activity of peptides was determined by the microbroth dilution method ([Zhang et al., 2014]). The bacterial strains were incubated in Mueller-Hinton (MH) medium at 28°C or 37°C overnight. Bacteria (1 × 10^5 CFU/mL) were added into 96-well plates, followed by the addition of serial dilutions of peptides (from 0.0625 to 128 μg/mL). The plates were incubated at 37°C for 18–24 h. The minimal inhibitory concentration (MIC) value was determined as the lowest peptide concentration at which no bacterial growth was observed.

[2] = tested on: E. coli CVCC25922; assay type: cell-based, Escherichia coli
Method: as §1

[3] = tested on: S. typhimurium ATCC14028; assay type: cell-based, Salmonella typhimurium
Method: as §1

[4] = assay type: cell-based, Streptococcus enteritidis
Method: as §1

[5] = tested on: Edwardsiella tarda; assay type: cell-based
Method: as §1

[6] = tested on: Escherichia coli CVCC195; assay type: cell-based
Method: as §1

[7] = tested on: Salmonella pullorum CVCC1802; assay type: cell-based
Method: as §1

[8] = tested on: Salmonella typhimurium CVCC533; assay type: cell-based; conditions: murium CVCC533
Method: as §1

[9] = tested on: Staphylococcus aureus ATCC43300; assay type: cell-based
Method: as §1

[10] = tested on: Staphylococcus hyicus 437-2; assay type: cell-based
Method: as §1

[11] = tested on: S. pullorum CVCC1789; assay type: cell-based, Salmonella pullorum
Method: as §1

[12] = tested on: S. aureus ATCC25923; assay type: cell-based, Staphylococcus aureus
Method: as §1

[13] = tested on: S. aureus ATCC546; assay type: cell-based, Staphylococcus aureus
Method: as §1

[14] = tested on: S. hyicus 15095; assay type: cell-based, Staphylococcus hyicus
Method: as §1

[15] = tested on: Gram-negative and Gram-positive bacteria (ALL); assay: Geometric mean of MICs and therapeutic index; assay type: cell-based; conditions: for GM ALL: geometric mean (GM) of MICs, all strains; for TI ALL: therapeutic index (TI), cell selectivity
Method: as §1
(§2) The geometric mean (GM) of MICs of peptides against Gram-negative and Gram-positive bacteria was calculated, and the result was shown in Table 3. […] For Gram-negative bacteria, the TI value of GUON6NH2 (53.33) was very close to N6NH2 (58.18), while for positive bacteria, the TI value of GUON6NH2 (12.8) was slightly higher than that of N6NH2 (12.31), indicating their huge therapeutic potential. For Gram-positive bacteria, DN6NH2 had the highest TI value and the best therapeutic potential.

[16] = tested on: Gram-negative bacteria; assay: Geometric mean of MICs and therapeutic index; assay type: cell-based; conditions: for GM Gram-negative bacteria: geometric mean (GM) of MICs against Gram-negative bacteria; for TI Gram-negative bacteria: therapeutic index (TI), cell selectivity
Method: as §1, §2

[17] = tested on: Gram-positive bacteria; assay: Geometric mean of MICs and therapeutic index; assay type: cell-based; conditions: for GM Gram-positive bacteria: geometric mean (GM) of MICs against Gram-positive bacteria; for TI Gram-positive bacteria: therapeutic index (TI), cell selectivity
Method: as §1, §2

[18] = tested on: murine erythrocytes; assay type: cell-based, mouse
Method: The hemolysis of peptides was evaluated by determining the amount of hemoglobin that was released from fresh mouse erythrocytes ([Flamm et al., 2019]). The blood cells were washed three times with 10 mM PBS (pH 7.4) and centrifuged for 10 min (1,500 rpm). Erythrocyte solution (8%, v/v) was mixed with peptide solutions (1:1) and incubated for 1 h at 37°C. The mixture was then centrifuged for 5 min (1,500 rpm), and the absorbance of supernatants was measured at 540 nm. Values of 0 and 100% hemolysis were determined in PBS and 0.1% triton X-100, respectively. The hemolysis of peptides was calculated using the following formula: Hemolysis (%) = [(Abs treated sample – Abs negative control)/(Abs positive control – Abs negative control)] × 100.

[19] = tested on: LPS; assay: LPS binding, BODIPY-TR-cadaverine (BC) probe displacement; conditions: 0.5 μM LPS, 5 μM BC, Tris buffer pH 7.4; peptides 0.049 to 50 μM
Method: The BODIPY’-TR-cadaverine (BC) probe was used to determine the ability of peptides to bind to LPS ([Wang et al., 2020]). 0.5 μM LPS was incubated with 5 μM BC in […] Tris buffer (pH 7.4) for 4 h at 37°C. Subsequently, the peptides were added into the mixture and the final concentrations of peptides ranged from 0.049 to 50 μM. Ampicillin was used as the negative control. Changes in fluorescence were measured by a fluorescence spectrophotometry at room temperature (excitation/emission, 580/620 nm).

[20] = tested on: inner membrane of E. tarda; assay: Inner membrane penetration, PI staining by flow cytometry; assay type: cell-based, Edwardsiella tarda; conditions: 1× MIC, 5–30 min at 37°C, 1 × 10^8 CFU/mL
Method: Mid-log phase E. tarda cells (1 × 10^8 CFU/mL) were incubated with or without 1× MIC peptides solutions at 37°C for 5, 15, and 30 min, respectively. After washing twice with PBS, bacterial cells were then incubated with 50 μg/mL propidium iodide (PI) for 15 min and analyzed using a FACS Calibur Flow Cytometer (BD, United States) ([Stearns-Kurosawa et al., 2011]).

[21] = tested on: E. tarda; assay: SEM and TEM morphology; assay type: cell-based, Edwardsiella tarda; conditions: 4× MIC, 2 h
Method: To further characterize the bactericidal effects of the peptides, scanning electron microscopy (SEM) and transmission electron microscopy (TEM) were used to visualize morphological changes ([Yang et al., 2019]). E. tarda was cultured to logarithmic growth stage (10^8 CFU/mL) and diluted with 0.01 M PBS (pH 7.4) to OD600 nm = 1. E. tarda cells were treated with 4× MIC peptides at 37°C for 2 h and the untreated cells were used as the control. Briefly, after centrifugation, the bacterial cells were washed three times with 0.1 M PBS (pH 7.2) and fixed overnight at 4°C with 2.5% glutaraldehyde. After washing again, the cells were fixed with 1% osmium tetroxide (OsO4) for 2 h and dehydrated in a graded ethanol series (50%–70%–85%–95% × 2–100%, × 2) for 15 min, respectively. The samples were then dried by CO2, sputtered with gold-palladium, and observed on a QUANTA200 SEM (FEI, Philips, Netherlands).
E. tarda cells were treated peptides before fixation as described above. The bacteria were washed with 0.01 M PBS (pH 7.4) for five times, 7 min each time, and fixed with 1% osmium acid buffer (4°C) for 1 h. After dehydration with a graded acetone series (30%–50%–70%–85%–95%–100% × 3), the cells were immersed in mixtures of acetone and resin (3:1, 1:1 and 1:3, respectively) for 40 min and in a pure epoxy resin overnight. The samples were then embedded in embedding medium and polymerized at 45°C for 3 h and at 65°C for 24 h, respectively. The sections were prepared using an ultramicrotome, stained with 1% uranyl acetate, and visualized by a JEM1400 (JEDL, Tokyo, Japan).

Compound	MIC [1] [µg/mL]	MIC [2] [µg/mL]	MIC [3] [µg/mL]	MIC [4] [µg/mL]	MIC [5] [µg/mL]	MIC [6] [µg/mL]	MIC [7] [µg/mL]	MIC [8] [µg/mL]	MIC [9] [µg/mL]	MIC [10] [µg/mL]	MIC [11] [µg/mL]	MIC [12] [µg/mL]	MIC [13] [µg/mL]	MIC [14] [µg/mL]	GM ALL [15] [µg/mL]	TI ALL [15]	GM Gram-negative bacteria [16] [µg/mL]	TI Gram-negative bacteria [16]	GM Gram-positive bacteria [17] [µg/mL]	TI Gram-positive bacteria [17]	also measured
CC(C)[C@H]1NC(=O)CNC(=O)[C@@H](CC(N)=O)NC(=O)[C@@H](CCCNC(=N)N)NC(=O)[C@@H](Cc2ccc(O)cc2)NC(=O)[C@@H](C(C)C)NC(=O)[C@H](NC(=O)[C@H](NC(=O)[C@@H](CC(N)=O)NC(=O)[C@@H](Cc2c[nH]c3ccccc23)NC(=O)[C@@H](C)NC(=O)[C@@H](Cc2ccccc2)NC(=O)CN)C(C)C)CSSC[C@H](C(=O)N[C@H](Cc2c[nH]cn2)C(=O)N[C@H](CCCNC(=N)N)C(=O)N[C@H](CCCNC(=N)N)C(=O)N[C@H](C)C(=O)N[C@H](CC(N)=O)C(N)=O)NC(=O)[C@@H](C(C)C)NC(=O)[C@@H](CCCNC(=N)N)NC1=O [DN6NH2]	4 (≈ 1.62 µM)	8 (≈ 3.23 µM)	8 (≈ 3.23 µM)	2 (≈ 0.808 µM)	8 (≈ 3.23 µM)	8 (≈ 3.23 µM)	8 (≈ 3.23 µM)	16 (≈ 6.46 µM)	4 (≈ 1.62 µM)	8 (≈ 3.23 µM)	16 (≈ 6.46 µM)	8 (≈ 3.23 µM)	16 (≈ 6.46 µM)	4 (≈ 1.62 µM)	8.13	31.49	8.2	31.22	8	32	MHC [18]: >128 µg/mL; ability to bind to LPS (BC probe displacement) [19]: V112N6NH2 > GUON6NH2 > N6NH2 > DN6NH2 > N6PNH2; penetration rate (PI-stained cells) [20]: 1.3–16.1%; morphological changes by SEM [21]: no significant change in the bacterial cell structures
CC(C)[C@@H]1NC(=O)CNC(=O)[C@H](CC(N)=O)NC(=O)[C@H](CCCNC(=N)N)NC(=O)[C@H](Cc2ccc(O)cc2)NC(=O)[C@H](C(C)C)NC(=O)[C@@H](NC(=O)[C@@H](NC(=O)[C@H](CC(N)=O)NC(=O)[C@H](Cc2c[nH]c3ccccc23)NC(=O)[C@H](C)NC(=O)[C@H](Cc2ccccc2)NC(=O)CN)C(C)C)CSSC[C@@H](C(=O)N[C@@H](Cc2c[nH]cn2)C(=O)N[C@@H](CCCNC(=N)N)C(=O)N2CCC[C@H]2C(=O)N[C@@H](C)C(=O)N[C@@H](CC(N)=O)C(N)=O)NC(=O)[C@H](C(C)C)NC(=O)[C@H](CCCNC(=N)N)NC1=O [N6PNH2] (H-GFAWNVCVYRNGVRVCHRPAN-NH2; disulfide 7-16 (inferred); N-terminus assumed)	4 (≈ 1.66 µM)	8 (≈ 3.31 µM)	16 (≈ 6.62 µM)	2 (≈ 0.828 µM)	32 (≈ 13.2 µM)	8 (≈ 3.31 µM)	8 (≈ 3.31 µM)	32 (≈ 13.2 µM)	>64	>64	16 (≈ 6.62 µM)	>64	>64	64 (≈ 26.5 µM)	47.33	5.41	13.4	19.1	115.2	2.22	MHC [18]: >128 µg/mL; ability to bind to LPS (BC probe displacement) [19]: V112N6NH2 > GUON6NH2 > N6NH2 > DN6NH2 > N6PNH2; penetration rate (PI-stained cells) [20]: 0.42–2.20%
